In one data set the test system is Pseudomonas aeruginosa. Nature of the data set: In vitro antibacterial activity, agar dilution MIC (Experiment 1). The format is cell-based. How it is done:
Tested strains: all the clinically separated strains below were purchased from public facilities.
Escherichia coli ATCC25922, Pseudomonas aeruginosa ATCC27853, Klebsiella pneumoniae ATCC700603, and the like.
Tested Samples: Imipenem, Ceftazidime: Commercial Products, the Following Experiments were Carried Out According to the Content of an Effective Ingredient in Each Commercial Product;
The compounds of the present invention, their chemical names, and preparation methods are shown in the preparation example of each compound.
Experiment method: Agar dilution method, refer to National Committee for Clinical Laboratory Standards. 2006. Methods for Dilution Antimicrobial Susceptibility Tests for Bacteria That Grow Aerobically; Approved Standard—Seventh Edition M7-A7, Vol 26, No. 2, 2006, to determine the MIC of the compound. MIC represents the minimum inhibitory concentration.
(In agar dilution, organisms are placed on agar that contains the substance at set levels.)

Data set [1] is described as follows: Pharmacokinetics (PK) determination in SD rats (Experiment 4). It counts as in vivo. The following applies: plasma; for Cl_obs / Vz_obs / t1/2z / λ_z: IV 2 mg/kg; for AUC(0-t) / AUC(0-inf): Sprague-Dawley (SD), rat, iv, 2 mg/kg; for AUC(0-inf): read-out: AUCINF_obs. Here is the method:
The compound of the present invention, self-prepared and dissolved in a suitable solvent.
Instrument and equipment: API4000 LC-MS/MS
Chromatographic column: Waters XBridge C18(2.1×50 mm, […])
Rat blood collection: Animals were fixed. The animal's tail was heated with a water bathtub 10 minutes before each time point. About 200 μL of the blood was collected through the caudal vein. After the blood collection, the blood was placed in an anticoagulation tube containing heparin sodium. The blood samples were centrifuged at 8000 rpm for 6 minutes at 4° C. to obtain plasma samples. The plasma must be prepared within 30 minutes after the blood collection. The plasma was stored in a refrigerator at −80° C. before the test.
(1) Test samples were removed from the refrigerator (−80° C.), naturally thawed at room temperature, and then vortexed for 5 minutes;
(2) 20 μL sample was precisely pipetted to a 1.5 mL centrifuge tube;
(3) 200 μL of the internal standard solution was added;
(4) The mixture was vortexed for 5 minutes and centrifuged for 5 minutes (12000 revolutions per minute);
(5) 100 μL of the supernate was precisely pipetted, 100 μL of water was added, the mixture was vortexed for 5 minutes, and the sample was sent to LC-MS/MS for analysis.
The results of the concentrations of the test samples (plasma samples) were output with Analyst 1.6.1 of AB Corporation. The meaning value, the standard deviation, the coefficient of variation, and other parameters (not necessary to calculate the parameter that can be directly output from Analyst 1.6.1) were calculated with Microsoft Excel, and the PK parameter is calculated with Pharsight Phoenix 6.1 software.

Setting [2] is: agar dilution (Table 3), read-out: MIC50.
Setting [3] is: agar dilution (Table 3), read-out: MIC90.

≈ marks a conversion by molar mass, not a printed value. Like-named read-outs stand apart in the source and are kept apart here. Bounds are passed on as bounds.

Turning to `C[C@@H](O)[C@H](NC(=O)c1ccc(C#CC#Cc2oc(CO)cc2-c2ccccc2)cc1)C(=O)NO` [Compound 17, N-((2S,3R)-3-hydroxy-1-(hydroxyamino)-1-oxobutan-2-yl)-4-((5-(hydroxymethyl)-3-phenylfuran-2-yl)buta-1,3-diynyl)benzamide], the MIC50 (in general, an inhibitory concentration at the 50% level, which refers to growth in some studies and to a panel of isolates in others) with Pseudomonas aeruginosa (setting [2]) came to 8 µg/mL (≈ 17.4 µM). Also, the MIC90 (as a rule, the lowest concentration that inhibits either 90% of growth or 90% of the strains tested, depending on the study) with Pseudomonas aeruginosa (setting [3]) was over 16 µg/mL.
Consider `C[C@@H](O)[C@H](NC(=O)c1ccc(C#CC#Cc2ccc(C(=O)N(C)C)o2)cc1)C(=O)NO` [Compound 29], for which the MIC50 in the data set on Pseudomonas aeruginosa (setting [2]) was 1 µg/mL (≈ 2.36 µM). Further, the MIC90 with Pseudomonas aeruginosa (setting [3]) was determined as 4 µg/mL (≈ 9.45 µM).
Regarding `C[C@@H](O)[C@H](NC(=O)c1ccc(C#CC#Cc2ccc(C(N)=O)o2)cc1)C(=O)NO` [Compound 27], the MIC90 in the data set with Pseudomonas aeruginosa (setting [3]) was found to be 4 µg/mL (≈ 10.1 µM).
Turning to `Cn1nc(CO)cc1-c1ccc(C#Cc2ccc(C(=O)N[C@H](C(=O)NO)C(C)(C)N)cc2)cc1` [Compound 37, (S)—N-(3-amino-1-(hydroxyamino)-3-methyl-1-oxobutan-2-yl)-4-((4-(3-(hydroxymethyl)-1-methyl-1H-pyrazol-5-yl)phenyl)ethynyl)benzamide], the MIC50 in the data set on Pseudomonas aeruginosa (setting [2]) was found to be 1 µg/mL (≈ 2.17 µM). In data set [1], this compound gave a Cl_obs of 78.5 ± 5.5 mL/min/kg, a Vz_obs of 17.6 ± 4.22 L/kg, a t1/2z of 2.63 ± 0.76 h and a λ_z of 0.28 ± 0.08 h⁻¹. Besides, in data set [1], the AUC(0-t) (commonly the area under the concentration-time curve up to a stated or last time point) was determined as 402 ± 21.6 ng·h/mL and the AUC(0-inf) was found to be 426 ± 28.5 ng·h/mL.
With `Cn1nccc1-c1ccc(C#Cc2ccc(-c3ccn(CCC(C)(C(=O)NO)S(C)(=O)=O)c(=O)c3)cc2)cc1` (centres unmarked) [Compound 38, N-hydroxy-2-methyl-4-(4-(4-((4-(1-methyl-1H-pyrazol-5-yl)phenyl)ethynyl)phenyl)-2-oxopyridin-1(2H)-yl)-2-(methylsulfonyl)butanamide], in data set [1], the Cl_obs is 16.8 ± 1.5 mL/min/kg, the Vz_obs is listed as 1.81 ± 0.17 L/kg, the t1/2z was 1.25 ± 0.09 h and the λ_z was 0.56 ± 0.04 h⁻¹. Further, in data set [1], the AUC(0-t) is 1940 ± 168 ng·h/mL and the AUC(0-inf) amounted to 1990 ± 176 ng·h/mL.
For the compound `C[C@@H](O)[C@H](NC(=O)c1ccc(/C=C/C=C/c2ccc(CO)o2)cc1)C(=O)NO` [Compound 3, N-((2S,3R)-3-hydroxy-1-(hydroxamino)-1-oxobutan-2-yl)-4-((1E,3E)-4-(5-(hydroxymethyl)furan-2-yl)buta-1,3-dienyl)benzamide], the MIC50 in the data set on Pseudomonas aeruginosa (setting [2]) turned out to be 2 µg/mL (≈ 5.18 µM). In addition, the MIC90 in the data set on Pseudomonas aeruginosa (setting [3]) turned out to be 16 µg/mL (≈ 41.4 µM).
On the same counts, the results for `C[C@@H](O)[C@H](NC(=O)c1ccc(C#Cc2ccc(-c3ccnn3C)cc2)cc1)C(=O)NO` [Compound 36, N-((2S,3R)-3-hydroxy-1-(hydroxyamino)-1-oxobutan-2-yl)-4-((4-(1-methyl-1H-pyrazol-5-yl)phenyl)ethynyl)benzamide] are 2 µg/mL (≈ 4.78 µM) and over 16 µg/mL.
With `COCc1ccc(C#Cc2ccc(-c3ccn(CCC(C)(C(=O)NO)S(C)(=O)=O)c(=O)c3)cc2)o1` (centres unmarked) [Compound 48], in the data set on Pseudomonas aeruginosa (setting [2]), the MIC50 turned out to be 2 µg/mL (≈ 4.01 µM).
`C[C@@H](O)[C@H](NC(=O)c1ccc(C(=O)N/N=C/c2ccco2)cc1)C(=O)NO` [Compound 26, 4-(2-(furan-2-methylene)hydrazinecarbonyl)-N-((2S,3R)-3-hydroxy-1-(hydroxyamino)-1-oxobutan-2-yl)-benzamide]: in the data set on Pseudomonas aeruginosa (setting [3]), the MIC90 was found to be 4 µg/mL (≈ 10.7 µM).
On to `Cn1nccc1-c1ccc(C#Cc2ccc(C(=O)N[C@H](C(=O)NO)C(C)(C)N)cc2)cc1` [Compound 35, (S)—N-(3-amino-1-(hydroxyamino)-3-methyl-1-oxobutan-2-yl)-4-((4-(1-methyl-1H-pyrazol-5-yl)phenyl)ethynyl)benzamide], for which, in the data set on Pseudomonas aeruginosa, the MIC50 was 2 µg/mL (≈ 4.64 µM) and the MIC90 worked out at 16 µg/mL (≈ 37.1 µM).
`C[C@@H](O)[C@H](NC(=O)c1ccc(C#Cc2ccc(-c3ccnn3C)nc2)cc1)C(=O)NO` [Compound 40, N-((2S,3R)-3-hydroxy-1-(hydroxyamino)-1-oxobutan-2-yl)-4-((6-(1-methyl-1H-pyrazol-5-yl)pyridin-3-yl)ethynyl)benzamide]: the MIC50 in the data set on Pseudomonas aeruginosa (setting [2]) was 2 µg/mL (≈ 4.77 µM). In the data set on Pseudomonas aeruginosa (setting [3]), the MIC90 is 1 µg/mL (≈ 2.38 µM).
For `C[C@@H](O)[C@H](NC(=O)c1ccc(C#CC#Cc2ccc(CN3CCNCC3)o2)cc1)C(=O)NO` [Compound 24, N-((2S,3R)-3-hydroxy-1-(hydroxyamino)-1-oxobutan-2-yl)-4-((5-(piperazin-1-ylmethyl)furan-2-yl)buta-1,3-diynyl)benzamide], in that order: 4 µg/mL (≈ 8.88 µM) and over 16 µg/mL.
Turning to “N-((2S,3R)-3-hydroxy-1-(hydroxyamino)-1-oxobutan-2-yl)-4-((5-((2-(2-hydroxyethoxy)ethylamino)methyl)furan-2-yl)buta-1,3-diynyl)benzamide [Compound 19]”, in the data set on Pseudomonas aeruginosa (agar dilution (Table 3)), the MIC50 came to 2 µg/mL and the MIC90 was found to be 8 µg/mL.
Consider `C[C@@H](O)[C@H](NC(=O)c1ccc(/C=C/C=C/c2ccc(CO)o2)nc1)C(=O)NO` [Compound 32], for which, in data set [1], the Cl_obs was found to be 96.7 ± 8.83 mL/min/kg, the Vz_obs stood at 4.24 ± 1.65 L/kg, the t1/2z is given as 0.506 ± 0.18 h and the λ_z worked out at 1.48 ± 0.46 h⁻¹. Further, in data set [1], the AUC(0-t) came to 344 ± 33.7 ng·h/mL and the AUC(0-inf) was determined as 347 ± 32.7 ng·h/mL.
For `C[C@@H](O)[C@H](NC(=O)c1ccc(C#CC#Cc2ccnn2C)cc1)C(=O)NO` [Compound 34, N-((2S,3R)-3-hydroxy-1-(hydroxamino)-1-oxobutan-2-yl)-4-((1-methyl-1H-pyrazol-5-yl)buta-1,3-diynyl)benzamide], the MIC50 in the data set with Pseudomonas aeruginosa (setting [2]) amounted to 4 µg/mL (≈ 10.9 µM). For the same compound, the MIC90 in the data set on Pseudomonas aeruginosa (setting [3]) was over 16 µg/mL.
For `CC(CCn1ccc(-c2ccc(C#CC#Cc3ccc(CO)o3)cc2)cc1=O)(C(=O)NO)S(C)(=O)=O` (centres unmarked) [Compound 47], in that order: 4 µg/mL (≈ 7.87 µM) and over 16 µg/mL.
For `CC(C)(O/N=C(\C(=O)N[C@@H]1C(=O)N2C(C(=O)[O-])=C(C[n+]3ccccc3)CS[C@H]12)c1csc(N)n1)C(=O)O` [Ceftazidime, reference compound], in that order: 2 µg/mL (≈ 3.66 µM) and over 16 µg/mL.
For `C[C@@H](O)[C@H](NC(=O)c1ccc(C#CC#Cc2ccc(CNCCCN)o2)cc1)C(=O)NO` [Compound 12, 4-((5-((3-aminopropylamino)methyl)furan-2-yl)buta-1,3-diynyl)-N-((2S,3R)-3-hydroxy-1-(hydroxyamino)-1-oxobutan-2-yl)benzamide], in that order: 2 µg/mL (≈ 4.56 µM) and 4 µg/mL (≈ 9.12 µM).
Consider `C[C@@](CCn1ccc(-c2ccc(C#Cc3ccc(CO)o3)cc2)cc1=O)(C(=O)NO)S(C)(=O)=O` [Compound 46], for which, in the data set on Pseudomonas aeruginosa (setting [2]), the MIC50 is 1 µg/mL (≈ 2.06 µM). Moreover, in the data set on Pseudomonas aeruginosa (setting [3]), the MIC90 was 8 µg/mL (≈ 16.5 µM).
Consider `CC(CCn1ccc(-c2ccc(C#Cc3ccc(CN4CCOCC4)o3)cc2)cc1=O)(C(=O)NO)S(C)(=O)=O` (centres unmarked) [Compound 45, N-hydroxy-2-methyl-2-(methylsulfonyl)-4-(4-(4-((5-(morpholinomethyl)furan-2-yl)ethynyl)phenyl)-2-oxopyridin-1(2H)-yl)butanamide], for which, in the data set on Pseudomonas aeruginosa (setting [2]), the MIC50 amounted to 4 µg/mL (≈ 7.22 µM).
With `C[C@@H](O)[C@H](NC(=O)c1ccc(/C=C/C=C/c2ccco2)cc1)C(=O)NO` [Compound 1, 4-((1E,3E)-4-(furan-2-yl)buta-1,3-dienyl)-N-((2S,3R)-3-hydroxy-1-(hydroxyamino)-1-oxobutan-2-yl)benzamide], the MIC50 in the data set with Pseudomonas aeruginosa (setting [2]) was 1 µg/mL (≈ 2.81 µM). Besides, the MIC90 with Pseudomonas aeruginosa (setting [3]) was over 16 µg/mL.
For `CC(O)C(NC(=O)c1ccc(/C=C/C=C/c2ccco2)cc1)C(=O)NO` (racemic) [Compound 25], in that order: 1 µg/mL (≈ 2.81 µM) and over 16 µg/mL.
